Experiments:
[1] = test system: A549; experiment: Antiproliferative activity against human A549 cells after 48 hrs by MTT assay; type: functional, cell-based; conditions: A549, 48 h
[2] = test system: HepG2; experiment: Antiproliferative activity against human HepG2 cells after 48 hrs by MTT assay; type: functional, cell-based; conditions: HepG2, 48 h
[3] = test system: L02; experiment: Antiproliferative activity against human L02 cells after 48 hrs by MTT assay; type: functional, cell-based; conditions: L02, 48 h
[4] = test system: NCI/ADR-RES; experiment: Antiproliferative activity against human MCF7/ADR cells after 48 hrs by MTT assay; type: functional, cell-based
[5] = test system: MCF7; experiment: Antiproliferative activity against human MCF7 cells after 48 hrs by MTT assay; type: functional, cell-based; conditions: MCF7, 48 h
[6] = test system: MDA-MB-231; experiment: Antiproliferative activity against human MDA-MB-231 cells after 48 hrs by MTT assay; type: functional, cell-based; conditions: MDA-MB-231, 48 h
[7] = test system: NCI/ADR-RES; experiment: Reversal of multidrug resistant activity in human MCF7/ADR cells after 48 hrs by MTT assay; type: functional, cell-based
[8] = test system: MCF7; experiment: Antiproliferative activity against human MCF7 cells assessed as growth inhibition at 3 uM after 48 hrs by MTT assay relative to control; type: functional; conditions: read-out: GI
[9] = test system: Calf thymus DNA; experiment: Binding affinity to calf thymus DNA assessed as red shift in absorption spectra at 20 uM by UV-vis absorption spectroscopy; type: nucleic-acid assay; conditions: Bos taurus
[10] = test system: Calf thymus DNA; experiment: Binding affinity to calf thymus DNA assessed as hypochromicity at 20 uM measured by UV-vis absorption spectroscopy; type: nucleic-acid assay; conditions: Bos taurus

IC50 [1] | IC50 [2] | IC50 [5] | IC50 [6] | OD [9] | Activity [10] | Compound | IC50 [3] | IC50 [4] | IC50 [7] | inhibition of growth at 3 µM [8]
8.95 µM | 8.12 µM | 6.09 µM | 8.61 µM | – | – | O=C1c2ccccc2-c2nccc3c(OCCCn4cnc(Br)c4)ccc1c23 | 36.8 µM | 11.2 µM | – | –
10.6 µM | 10.9 µM | 9.78 µM | 10 µM | – | – | O=C1c2ccccc2-c2nccc3c(OCCCCn4ccnc4[N+](=O)[O-])ccc1c23 | 37.3 µM | 13.5 µM | – | –
9.63 µM | 10.3 µM | 8.46 µM | 9.43 µM | – | – | O=C1c2ccccc2-c2nccc3c(OCCCCN4CCOCC4)ccc1c23 | 22.9 µM | 19.3 µM | 6.12 µM | 17.4%
6.17 µM | 8.42 µM | 10.2 µM | 7.34 µM | – | – | N#Cc1ncn(CCCCOc2ccc3c4c(nccc24)-c2ccccc2C3=O)c1C#N | 26.8 µM | 10.1 µM | – | –
12.2 µM | 14.3 µM | 9.34 µM | 11.4 µM | – | – | O=C1c2ccccc2-c2nccc3c(OCCCCn4cnc([N+](=O)[O-])c4)ccc1c23 | > 50 µM | 18.3 µM | – | –
9.63 µM | 11.1 µM | 9.42 µM | 9.47 µM | – | – | Cc1cn(CCCCOc2ccc3c4c(nccc24)-c2ccccc2C3=O)cn1 | 28.2 µM | 13.6 µM | – | –
6.09 µM | 8.13 µM | 9.29 µM | 7.18 µM | – | – | O=C1c2ccccc2-c2nccc3c(OCCCCCn4ccnc4[N+](=O)[O-])ccc1c23 | 30.2 µM | 10.2 µM | – | –
10.3 µM | 13.1 µM | 10.1 µM | 12 µM | – | – | O=C1c2ccccc2-c2nccc3c(OCCCn4ccnc4[N+](=O)[O-])ccc1c23 | 39.6 µM | 16.7 µM | – | –
5.88 µM | 7.29 µM | 7.65 µM | 7.39 µM | – | – | N#Cc1ncn(CCCCCOc2ccc3c4c(nccc24)-c2ccccc2C3=O)c1C#N | 31.1 µM | 10.1 µM | – | –
11.2 µM | 12 µM | 9.35 µM | 12.1 µM | – | – | Cc1cn(CCCOc2ccc3c4c(nccc24)-c2ccccc2C3=O)cn1 | 23.8 µM | 17.1 µM | – | –
7.36 µM | 8.67 µM | 10 µM | 8.29 µM | – | – | O=C1c2ccccc2-c2nccc3c(OCCCCCn4cnc([N+](=O)[O-])c4)ccc1c23 | 23.8 µM | 11.5 µM | – | –
8.53 µM | 7.46 µM | 7.95 µM | 10.2 µM | – | – | O=C1c2ccccc2-c2nccc3c(OCCCCn4cnc(Br)c4)ccc1c23 | 32.3 µM | 12.1 µM | – | –
9.73 µM | 10.5 µM | 9.03 µM | 8.29 µM | – | – | O=C1c2ccccc2-c2nccc3c(OCCCn4cnc([N+](=O)[O-])c4)ccc1c23 | 21.1 µM | 18.4 µM | – | –

Further lines, the compound ahead of its results:

Compound | IC50 [1] | IC50 [2] | IC50 [5] | IC50 [6] | OD [9] | Activity [10] | IC50 [3] | IC50 [4] | IC50 [7] | inhibition of growth at 3 µM [8]
CN1CCN(CCOc2ccc3c4c(nccc24)-c2ccccc2C3=O)CC1 | 7.26 µM | 8.19 µM | 6.01 µM | 9.33 µM | – | – | 22.4 µM | 13.2 µM | 2.9 µM | 9.48%
CC1CCCCN1CCCCOc1ccc2c3c(nccc13)-c1ccccc1C2=O (stereo not drawn) | 8.46 µM | 10.1 µM | 9.95 µM | 8.46 µM | 1.6 nm | 22% | 28.4 µM | 15.2 µM | 1.82 µM | 3.7%
O=C1c2ccccc2-c2nccc3c(OCCN4CCOCC4)ccc1c23 | 6.37 µM | 8.07 µM | 6.01 µM | 8.48 µM | – | – | > 50 µM | 11.2 µM | 10.1 µM | 8.33%
CN1CCN(CCCOc2ccc3c4c(nccc24)-c2ccccc2C3=O)CC1 | 10 µM | 9.67 µM | 7.46 µM | 10.5 µM | – | – | 25.9 µM | 18.3 µM | 11.4 µM | 8.89%
COc1cccc2c1C(=O)c1c(O)c3c(c(O)c1C2=O)C[C@@](O)(C(=O)CO)C[C@@H]3O[C@H]1C[C@H](N)[C@H](O)[C@H](C)O1 [DOXORUBICIN] | – | – | – | – | – | – | 0.18 µM | – | – | –
O=C1c2ccccc2-c2nccc3c(OCCCN4CCOCC4)ccc1c23 | 9.23 µM | 10.3 µM | 7.58 µM | 9.52 µM | – | – | 32.4 µM | 14.6 µM | 1.81 µM | 3.73%
O=C1c2ccccc2-c2nccc3cccc1c23 | 26.2 µM | 28.2 µM | 24 µM | 32.2 µM | – | – | > 50 µM | 40.9 µM | – | –
COc1ccc(CCN(C)CCCC(C#N)(c2ccc(OC)c(OC)c2)C(C)C)cc1OC (stereo not drawn) | – | – | – | – | – | – | – | – | 2.83 µM | –
CC1CCCCN1CCCOc1ccc2c3c(nccc13)-c1ccccc1C2=O (stereo not drawn) | 7.48 µM | 6.56 µM | 8.32 µM | 7.94 µM | 2 nm | 28.5% | 19.5 µM | 16.2 µM | 0.39 µM | 19.7%
CN1CCN(CCCCOc2ccc3c4c(nccc24)-c2ccccc2C3=O)CC1 | 11.1 µM | 11.9 µM | 8.67 µM | 11.1 µM | – | – | > 50 µM | 13.2 µM | 1.8 µM | 6.68%

From ChEMBL document CHEMBL5154818, “Development of oxoisoaporphine derivatives with topoisomerase I inhibition and reversal of multidrug resistance in breast cancer MCF-7/ADR cells” (Eur J Med Chem, 2022)
